# Test results taken from the supplement of paper PMC10307832.
# Legend:
# Assay in all cases: relative viability (nuclei count vs DMSO), 5 days (fraction); higher = more cells survive
# LOU-NH91 = test system: LOU-NH91
# Outline: (§1)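 One day after seeding in 1536-well plates, lung cancer cell lines were dosed by pin tool. Dosing was either single-drug or a fixed anchor-drug dose plus five library-drug doses (not always all listed) in √10 steps. After 5 days, nuclei were stained in one fix-and-stain step and counted on 4× images, and relative viability is the nuclei count of treated wells over that of vehicle wells, given as the median of duplicate plates.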
# A-427 = test system: A-427
# Outline: as §1
# H3255 = test system: H3255
# Outline: as §1
# NCI-H441 = test system: NCI-H441
# Outline: as §1
# ChaGo-K-1 = test system: ChaGo-K-1
# Outline: as §1
# NCI-H1755 = test system: NCI-H1755
# Outline: as §1
# LK-2 = test system: LK-2
# Outline: as §1
# HCC-366 = test system: HCC-366
# Outline: as §1
# NCI-H2170 = test system: NCI-H2170
# Outline: as §1
# SK-MES-1 = test system: SK-MES-1
# Outline: as §1
# EKVX = test system: EKVX
# Outline: as §1
# NCI-H1734 = test system: NCI-H1734
# Outline: as §1
# NCI-H1975 = test system: NCI-H1975
# Outline: as §1
# EMC-BAC-2 = test system: EMC-BAC-2
# Outline: as §1
# NCI-H596 = test system: NCI-H596
# Outline: as §1
# NCI-H520 = test system: NCI-H520
# Outline: as §1
# COR-L 105 = test system: COR-L 105
# Outline: as §1
# NCI-H23 = test system: NCI-H23
# Outline: as §1
# NCI-H1666 = test system: NCI-H1666
# Outline: as §1
# PC-3 [JPC-3] = test system: PC-3 [JPC-3]
# Outline: as §1
# SW 900 = test system: SW 900
# Outline: as §1
smiles,measurement,setting,value
COc1nc(C)cnc1NS(=O)(=O)c1cccnc1-c1ccc(-c2nnco2)cc1 [Zibotentan] + CC1(C)CCC(c2ccc(Cl)cc2)=C(CN2CCN(c3ccc(C(=O)NS(=O)(=O)c4ccc(N[C@H](CCN5CCOCC5)CSc5ccccc5)c(S(=O)(=O)C(F)(F)F)c4)cc3)CC2)C1 [Navitoclax] (partner 0.5 µM),relative viability,LOU-NH91; first compound 0.08 µM,0.693
same,relative viability,LOU-NH91; first compound 0.253 µM,0.635
same,relative viability,LOU-NH91; first compound 0.8 µM,0.812
same,relative viability,LOU-NH91; first compound 2.53 µM,0.66
same,relative viability,A-427; first compound 0.08 µM,0.943
same,relative viability,A-427; first compound 0.253 µM,0.978
same,relative viability,A-427; first compound 0.8 µM,0.978
same,relative viability,A-427; first compound 2.53 µM,0.995
same,relative viability,H3255; first compound 0.08 µM,0.458
same,relative viability,H3255; first compound 0.253 µM,0.603
same,relative viability,H3255; first compound 0.8 µM,0.609
same,relative viability,H3255; first compound 2.53 µM,0.458
same,relative viability,NCI-H441; first compound 0.08 µM,0.635
same,relative viability,NCI-H441; first compound 0.8 µM,0.794
same,relative viability,NCI-H441; first compound 2.53 µM,0.877
same,relative viability,ChaGo-K-1; first compound 0.08 µM,0.95
same,relative viability,ChaGo-K-1; first compound 0.8 µM,0.695
same,relative viability,ChaGo-K-1; first compound 2.53 µM,0.888
same,relative viability,NCI-H1755; first compound 0.08 µM,1.01
same,relative viability,NCI-H1755; first compound 0.253 µM,0.99
same,relative viability,NCI-H1755; first compound 0.8 µM,1
same,relative viability,NCI-H1755; first compound 2.53 µM,1.02
same,relative viability,LK-2; first compound 0.08 µM,1.1
same,relative viability,LK-2; first compound 0.253 µM,0.807
same,relative viability,LK-2; first compound 0.8 µM,0.806
same,relative viability,LK-2; first compound 2.53 µM,0.828
same,relative viability,HCC-366; first compound 0.08 µM,1.12
same,relative viability,HCC-366; first compound 0.253 µM,1.14
same,relative viability,HCC-366; first compound 0.8 µM,1.15
same,relative viability,HCC-366; first compound 2.53 µM,1.06
same,relative viability,NCI-H2170; first compound 0.08 µM,0.699
same,relative viability,NCI-H2170; first compound 0.253 µM,0.6
same,relative viability,NCI-H2170; first compound 0.8 µM,0.651
same,relative viability,NCI-H2170; first compound 2.53 µM,0.651
same,relative viability,SK-MES-1; first compound 0.08 µM,1.32
same,relative viability,SK-MES-1; first compound 0.253 µM,1.14
same,relative viability,SK-MES-1; first compound 0.8 µM,1.21
same,relative viability,SK-MES-1; first compound 2.53 µM,1.29
same,relative viability,EKVX; first compound 0.08 µM,0.938
same,relative viability,EKVX; first compound 0.253 µM,1
same,relative viability,EKVX; first compound 0.8 µM,0.943
same,relative viability,EKVX; first compound 2.53 µM,1.06
same,relative viability,NCI-H1734; first compound 0.08 µM,0.906
same,relative viability,NCI-H1734; first compound 0.253 µM,0.881
same,relative viability,NCI-H1734; first compound 0.8 µM,0.822
same,relative viability,NCI-H1734; first compound 2.53 µM,0.897
same,relative viability,NCI-H1975; first compound 0.08 µM,1.13
same,relative viability,NCI-H1975; first compound 0.253 µM,1.05
same,relative viability,NCI-H1975; first compound 0.8 µM,1.05
same,relative viability,NCI-H1975; first compound 2.53 µM,1.02
same,relative viability,EMC-BAC-2; first compound 0.08 µM,1.11
same,relative viability,EMC-BAC-2; first compound 0.253 µM,1.17
same,relative viability,EMC-BAC-2; first compound 0.8 µM,1.18
same,relative viability,EMC-BAC-2; first compound 2.53 µM,1.19
same,relative viability,NCI-H596; first compound 0.08 µM,1.19
same,relative viability,NCI-H596; first compound 0.253 µM,0.896
same,relative viability,NCI-H596; first compound 0.8 µM,0.958
same,relative viability,NCI-H596; first compound 2.53 µM,1.05
same,relative viability,NCI-H520; first compound 0.08 µM,1.13
same,relative viability,NCI-H520; first compound 0.253 µM,0.93
same,relative viability,NCI-H520; first compound 0.8 µM,0.996
same,relative viability,NCI-H520; first compound 2.53 µM,1.37
same,relative viability,COR-L 105; first compound 0.08 µM,0.696
same,relative viability,COR-L 105; first compound 0.253 µM,0.649
same,relative viability,COR-L 105; first compound 0.8 µM,0.993
same,relative viability,COR-L 105; first compound 2.53 µM,0.84
same,relative viability,NCI-H23; first compound 0.08 µM,0.906
same,relative viability,NCI-H23; first compound 0.253 µM,0.773
same,relative viability,NCI-H23; first compound 0.8 µM,0.872
same,relative viability,NCI-H23; first compound 2.53 µM,0.853
same,relative viability,NCI-H1666; first compound 0.08 µM,0.878
same,relative viability,NCI-H1666; first compound 0.253 µM,0.785
same,relative viability,NCI-H1666; first compound 0.8 µM,0.767
same,relative viability,NCI-H1666; first compound 2.53 µM,1.01
same,relative viability,PC-3 [JPC-3]; first compound 0.08 µM,0.771
same,relative viability,PC-3 [JPC-3]; first compound 0.253 µM,0.726
same,relative viability,PC-3 [JPC-3]; first compound 0.8 µM,0.795
same,relative viability,PC-3 [JPC-3]; first compound 2.53 µM,0.728
CCN(CC)CCCCNc1ncc2cc(-c3cc(OC)cc(OC)c3)c(NC(=O)NC(C)(C)C)nc2n1 + NC(=O)Nc1cc(-c2cccc(F)c2)sc1C(=O)N[C@H]1CCCNC1 [AZD7762] (partner 0.2 µM),relative viability,LOU-NH91; first compound 0.01 µM,0.783
same,relative viability,LOU-NH91; first compound 0.03162 µM,0.768
same,relative viability,LOU-NH91; first compound 0.1 µM,0.828
same,relative viability,LOU-NH91; first compound 0.3162 µM,0.845
same,relative viability,LOU-NH91; first compound 1 µM,0.794
same,relative viability,A-427; first compound 0.01 µM,0.722
same,relative viability,A-427; first compound 0.03162 µM,0.671
same,relative viability,A-427; first compound 0.1 µM,0.778
same,relative viability,A-427; first compound 0.3162 µM,0.549
same,relative viability,A-427; first compound 1 µM,0.421
same,relative viability,H3255; first compound 0.01 µM,0.84
same,relative viability,H3255; first compound 0.03162 µM,0.909
same,relative viability,H3255; first compound 0.1 µM,0.911
same,relative viability,H3255; first compound 0.3162 µM,1.11
same,relative viability,H3255; first compound 1 µM,0.855
same,relative viability,NCI-H441; first compound 0.01 µM,1.16
same,relative viability,NCI-H441; first compound 0.03162 µM,1.16
same,relative viability,NCI-H441; first compound 0.1 µM,1.1
same,relative viability,NCI-H441; first compound 0.3162 µM,1.39
same,relative viability,NCI-H441; first compound 1 µM,0.921
same,relative viability,ChaGo-K-1; first compound 0.01 µM,0.885
same,relative viability,ChaGo-K-1; first compound 0.03162 µM,0.927
same,relative viability,ChaGo-K-1; first compound 0.1 µM,0.956
same,relative viability,ChaGo-K-1; first compound 0.3162 µM,0.878
same,relative viability,ChaGo-K-1; first compound 1 µM,0.853
same,relative viability,SW 900; first compound 0.01 µM,0.646
same,relative viability,SW 900; first compound 0.03162 µM,0.637
same,relative viability,SW 900; first compound 0.1 µM,0.626
same,relative viability,SW 900; first compound 0.3162 µM,0.538
same,relative viability,SW 900; first compound 1 µM,0.388
same,relative viability,NCI-H1755; first compound 0.01 µM,0.429
same,relative viability,NCI-H1755; first compound 0.03162 µM,0.546
same,relative viability,NCI-H1755; first compound 0.1 µM,0.525
same,relative viability,NCI-H1755; first compound 0.3162 µM,0.421
same,relative viability,NCI-H1755; first compound 1 µM,0.365
same,relative viability,LK-2; first compound 0.01 µM,0.471
same,relative viability,LK-2; first compound 0.03162 µM,0.394
same,relative viability,LK-2; first compound 0.1 µM,0.374
same,relative viability,LK-2; first compound 0.3162 µM,0.276
same,relative viability,LK-2; first compound 1 µM,0.197
same,relative viability,HCC-366; first compound 0.01 µM,0.256
same,relative viability,HCC-366; first compound 0.03162 µM,0.462
same,relative viability,HCC-366; first compound 0.1 µM,0.277
same,relative viability,HCC-366; first compound 0.3162 µM,0.289
same,relative viability,HCC-366; first compound 1 µM,0.247
same,relative viability,NCI-H2170; first compound 0.01 µM,0.865
same,relative viability,NCI-H2170; first compound 0.03162 µM,1.01
same,relative viability,NCI-H2170; first compound 0.1 µM,1
same,relative viability,NCI-H2170; first compound 0.3162 µM,0.953
same,relative viability,NCI-H2170; first compound 1 µM,0.869
same,relative viability,EKVX; first compound 0.03162 µM,0.585
same,relative viability,EKVX; first compound 0.1 µM,0.643
same,relative viability,EKVX; first compound 0.3162 µM,0.723
same,relative viability,EKVX; first compound 1 µM,0.709
same,relative viability,NCI-H1734; first compound 0.01 µM,0.534
same,relative viability,NCI-H1734; first compound 0.03162 µM,0.593
same,relative viability,NCI-H1734; first compound 0.1 µM,0.52
same,relative viability,NCI-H1734; first compound 0.3162 µM,0.604
same,relative viability,NCI-H1734; first compound 1 µM,0.486
same,relative viability,NCI-H1975; first compound 0.01 µM,0.684
same,relative viability,NCI-H1975; first compound 0.03162 µM,0.676
same,relative viability,NCI-H1975; first compound 0.1 µM,0.776
same,relative viability,NCI-H1975; first compound 0.3162 µM,0.818
same,relative viability,NCI-H1975; first compound 1 µM,0.601
same,relative viability,EMC-BAC-2; first compound 0.03162 µM,1.14
same,relative viability,EMC-BAC-2; first compound 0.1 µM,1.3
same,relative viability,EMC-BAC-2; first compound 0.3162 µM,1.16
same,relative viability,EMC-BAC-2; first compound 1 µM,1.07
same,relative viability,NCI-H596; first compound 0.01 µM,1.11
same,relative viability,NCI-H596; first compound 0.03162 µM,1
same,relative viability,NCI-H596; first compound 0.1 µM,1.06
same,relative viability,NCI-H596; first compound 0.3162 µM,0.979
same,relative viability,NCI-H596; first compound 1 µM,0.801
same,relative viability,NCI-H23; first compound 0.01 µM,0.229
same,relative viability,NCI-H23; first compound 0.03162 µM,0.352
same,relative viability,NCI-H23; first compound 0.1 µM,0.323
same,relative viability,NCI-H23; first compound 0.3162 µM,0.207
same,relative viability,NCI-H23; first compound 1 µM,0.172
same,relative viability,NCI-H1666; first compound 0.01 µM,0.836
same,relative viability,NCI-H1666; first compound 0.03162 µM,0.848
same,relative viability,NCI-H1666; first compound 0.1 µM,0.889
same,relative viability,NCI-H1666; first compound 0.3162 µM,1.12
same,relative viability,NCI-H1666; first compound 1 µM,0.727
same,relative viability,PC-3 [JPC-3]; first compound 0.03162 µM,0.822
same,relative viability,PC-3 [JPC-3]; first compound 0.1 µM,0.756
same,relative viability,PC-3 [JPC-3]; first compound 0.3162 µM,1.03
same,relative viability,PC-3 [JPC-3]; first compound 1 µM,0.639
